Columns and labels:
[1] = target: T1, human GLP-1R receptor (Homo sapiens, UniProt P43220); experiment: GLP-1R low expression cell assay (cAMP TR-FRET, CHO-K1_hGLP-1Rlow_clone10); type: cell-based; settings: CHO-K1_hGLP-1Rlow_clone10 cells
T1 construct: expressed in transfected cells
Method: Stable cell lines expressing high and low GLP-1R surface expression were generated in CHO-K1 cells transfected (Fugene 6) with a puromycin selectable DNA plasmid encoding human GLP-1R receptor (accession number: NM_002062.5) under control of an EF1A promoter. Transfected cells were seeded into 24-well plates (9,000 cells/well) containing complete medium and incubated in a humidified incubator at 37° C. with 5% carbon dioxide. After overnight incubation, medium was replaced with complete medium supplemented with puromycin (6 μg/mL) and refreshed every 2-3 days to select for stably transfected cells. Individual pools of selected cells were expanded prior to analysis for responsiveness to GLP-1 control peptide using a TR-FRET assay to detect cAMP (LANCE Ultra CAMP Assay, Perkin Elmer). Briefly, cells were collected in Versene solution, plated in 384-well plates (1,000 cells/well) and combined with serially diluted GLP-1R control peptide (10 nL) using an acoustic dispenser (ECHO). Plates were incubated for 30 minutes at 25° C. prior to the addition of EU-CAMP tracer (5 μL) and Ulight-anti-cAMP (5 μL) reagents to each well, followed by 15 minutes incubation at 25° C. TR-FRET signal was detected using an En Vision Multimode Plate Reader (excitation=320 nm; emission=615 and 655 nm). Dose-response curves were used to generate EC50 values as a measure of responsiveness to the GLP-1R control peptide. Selected cell lines were monitored for responsiveness over multiple passages to ensure stability. […] Briefly, GLP-1R expression was analyzed by flow cytometry using a fluorescein-labeled Exendin-4 peptide fluorescent probe (FLEX). Cells were harvested in Versene solution and washed 3-times with PBS+0.5% BSA before incubation with FLEX reagent (10 μM) for 2 hours at room temperature. After incubation, cells were washed 3-times in PBS+0.5% BSA before final resuspension in PBS prior to analysis by flow cytometry to measure FLEX mean fluorescence intensity (MFI) as a measure of GLP-1R expression on the cell surface.
For compound testing in the CHO-K1_hGLP-1Rlow_clone10 cell line, cells were seeded in 384-well plates (1,000 cells/well). Test compounds were serially diluted in DMSO (10-point, 3-fold dilution), added to wells using an ECHO dispenser (10 nL/well) and plates were centrifuged for 1 min and agitated for 2 min at room temperature prior to 30-minute incubation at 25° C. After incubation, Eu-CAMP (5 μL) and Ulight-anti-cAMP (5 μL) reagents were added to each well, followed by centrifugation for 1 minute, agitation for 2 minutes at room temperature, and final incubation of the plates at 25° C. for 15 minutes. Plates were read using an EnVision microplate reader (excitation=320 nm; emission=615 and 655 nm). Dose-response curves were generated from duplicate wells based on percent activation calculated relative to a control GLP-1 peptide agonist that was run in parallel. EC50 values were determined by fitting percent activation as a function of compound concentration using the Hill equation (XLfit).
Stable cell lines expressing high and low GLP-1R surface expression were generated in CHO-K1 cells transfected (Fugene 6) with a puromycin selectable DNA plasmid encoding human GLP-1R receptor (accession number: NM_002062.5) under control of an EF1A promoter. Transfected cells were seeded into 24-well plates (9,000 cells/well) containing complete medium and incubated in a humidified incubator at 37° C. with 5% carbon dioxide. After overnight incubation, medium was replaced with complete medium supplemented with puromycin (6 μg/mL) and refreshed every 2-3 days to select for stably transfected cells. Individual pools of selected cells were expanded prior to analysis for responsiveness to GLP-1 control peptide using a TR-FRET assay to detect cAMP (LANCE Ultra CAMP Assay, Perkin Elmer).

[2] = Rat pharmacokinetics, oral dosing; type: in vivo, Sprague-Dawley rats; settings: rat; for AUC(0-t) / Cmax / half-life: male, Sprague-Dawley, plasma, po, 3 mg/kg, rat plasma
Method: Oral dosing: Compounds were formulated at 0.3 mg/mL or 0.6 mg/mL in a solution comprising 5% polyethylene glycol 400 and 95% (12% (w/v) sulfobutyl-β-cyclodextrin in water) (v/v). Formulated compounds were administered to male, 7-11 week old Sprague-Dawley rats by oral gavage at a dose of 3 mg/kg.
Sample collection: Blood collections of about 0.2 mL per time point were performed from jugular vein or other suitable site of each animal, into pre-chilled commercial EDTA-K2 tubes and placed on wet ice until centrifugation. Blood samples were processed for plasma by centrifugation at approximately 4° C., 3,200 g for 10 min. Plasma was collected and transferred into pre-labeled 96 well plate or polypropylene tubes, quick frozen over dry ice and kept at −60° C. or lower until LC-MS/MS analysis.
Data analysis: Plasma concentration versus time data was plotted in graph and analyzed by non-compartmental approaches using the Phoenix WinNonlin 6.3 software program. Related PK parameters were calculated according to dosing route, e.g., CL, Vdss and C0 for intravenous administration, Cmax, Tmax or % F for extravascular administration, and T1/2, AUC(0-t), AUC(0-inf), MRT(0-t), MRT(0-inf) for all routes.

T1 sequence (P43220 24-463): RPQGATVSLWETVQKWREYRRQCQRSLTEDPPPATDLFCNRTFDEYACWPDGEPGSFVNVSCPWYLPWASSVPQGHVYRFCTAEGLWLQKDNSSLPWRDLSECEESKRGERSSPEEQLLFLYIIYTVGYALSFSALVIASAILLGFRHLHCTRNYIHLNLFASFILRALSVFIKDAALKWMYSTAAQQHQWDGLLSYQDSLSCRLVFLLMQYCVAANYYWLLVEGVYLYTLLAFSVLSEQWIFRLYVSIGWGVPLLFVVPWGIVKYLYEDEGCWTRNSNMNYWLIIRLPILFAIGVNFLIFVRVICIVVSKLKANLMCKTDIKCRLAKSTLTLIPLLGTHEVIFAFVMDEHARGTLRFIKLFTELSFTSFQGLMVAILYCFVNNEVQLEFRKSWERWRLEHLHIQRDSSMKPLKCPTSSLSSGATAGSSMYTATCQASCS

SMILES	EC50 [1] [nM]	AUC(0-t) ([2]; 3 mg/kg PO (0.3 mg/mL)) [ng·h/mL]	Cmax ([2]; 3 mg/kg PO (0.3 mg/mL)) [ng/mL]	half-life ([2]; 3 mg/kg PO (0.3 mg/mL)) [h]	AUC(0-t) ([2]; 3 mg/kg PO (0.6 mg/mL)) [ng·h/mL]	Cmax ([2]; 3 mg/kg PO (0.6 mg/mL)) [ng/mL]	half-life ([2]; 3 mg/kg PO (0.6 mg/mL)) [h]	PK properties relative to Reference Compound A ([2]; dosed orally)	higher AUC relative to Reference Compound A ([2]; oral administration)
CC1(c2ccc(C#N)cc2F)Oc2cccc(C3CCN(Cc4nc5ccc(C(=O)O)cc5n4Cc4cncs4)CC3)c2O1 (stereo not shown) [Compound 31]	0.6	–	–	–	–	–	–	–	–
N#Cc1ccc(COc2cccc(C3CCN(Cc4nc5ccc(C(=O)O)cc5n4C[C@@H]4CCO4)CC3)n2)c(F)c1 [Reference Compound A, reference compound]	–	60.6 ± 9.01	37.7 ± 8.09	2 ± 1.07	121 ± 36.9	102 ± 57	1.68 ± 0.44	–	–
N#Cc1ccc(COc2cccc(C3CCN(Cc4nc5ccc(C(=O)O)cc5n4Cc4cncs4)CC3)n2)c(F)c1 [Compound 2]	3.1	384 ± 182	117 ± 61	3.3 ± 0.44	525 ± 138	491 ± 256	2.66 ± 1.74	significantly enhanced PK properties	4-6 fold

Continued, in another order:

EC50 [1] [nM]	SMILES	AUC(0-t) ([2]; 3 mg/kg PO (0.3 mg/mL)) [ng·h/mL]	Cmax ([2]; 3 mg/kg PO (0.3 mg/mL)) [ng/mL]	half-life ([2]; 3 mg/kg PO (0.3 mg/mL)) [h]	AUC(0-t) ([2]; 3 mg/kg PO (0.6 mg/mL)) [ng·h/mL]	Cmax ([2]; 3 mg/kg PO (0.6 mg/mL)) [ng/mL]	half-life ([2]; 3 mg/kg PO (0.6 mg/mL)) [h]	PK properties relative to Reference Compound A ([2]; dosed orally)	higher AUC relative to Reference Compound A ([2]; oral administration)
2.5	Cc1ncsc1Cn1c(CN2CCC(c3cccc(OCc4ccc(C#N)cc4F)n3)CC2)nc2ccc(C(=O)O)cc21 [Compound 4]	28.3 ± 21.7	21.6 ± 9.8	0.96 ± 0.33	–	–	–	–	–
1.7	N#Cc1ccc(COc2cccc(N3CCN(Cc4nc5ccc(C(=O)O)cc5n4Cc4cncs4)CC3)n2)c(F)c1 [Compound 30]	–	–	–	–	–	–	–	–
9.4	N#Cc1ccc(COc2ccnc(C3CCN(Cc4nc5ccc(C(=O)O)cc5n4Cc4cncs4)CC3)n2)c(F)c1 [Compound 20]	–	–	–	–	–	–	–	–

From US12522596B2, “Compounds as GLP-1R agonists” (Terns Pharmaceuticals, Inc., priority 2021, dated 2026)
